Experimental findings from patent publication US20260151384A1, “ISOQUINOLINE DERIVATIVES AS PROTEIN DEGRADERS, E7 DEGRADERS, ANTIVIRALS, TUMOR THERAPEUTICS AND IMMUNE SUPPRESSIVES” (priority 2022, published 2026) are described below.

Values joined by “and” are separate entries in the source; they are usually repeats but may differ in a detail not shown here. Equal values may be shown once.

Data set [1] has as its target HPV16 E7 protein (Human papillomavirus type 16, UniProt P03129). Format: cell-based. The settings on record: for % Dad: adjusted degradation, CHX steady state set to 100%, Table 2 screen.
Data set [2] relates to CaSki cells. The data set can be described thus: Monolayer assay using Sulphorhodamine B (SRB) staining, CaSki. Format: cell-based, human. A general note: Sulforhodamine B stains cellular protein and so reports cell mass.
Data set [3] has as its system CaSki cells. Nature of the data set: Cell cycle analysis using Propidium-Iodide staining (flow cytometry). It counts as cell-based, human. Conditions: 48 hour incubation. Here is the method:
Propidium-Iodide (PI) DNA staining is performed to facilitate cell cycle analysis. For PI-DNA staining, fixed cells and eventually antibody-stained cells are resuspended in 450 μl of PBS (per 10^6 cells) and incubated with 100 μg/ml RNase (stock 1 mg/ml, in PBS) for 10 minutes at 37° C. Cells are then incubated with 5 μg/106 cells of PI (stock 1 mg/ml in PBS) for 10 minutes at room temperature. Samples are stored at 4° C. until CF analysis.
CaSki cells were incubated with various compounds and cell cycle distribution of the cells was assessed using Propidium-Iodide staining.
In order to analyze the cytostatic versus the cytotoxic effect of OC compounds, cell cycle profiles were analyzed in vitro after 48 hour incubations using Flow Cytometry as a read out. For this a cell cycle analysis from selected OC E7 degrader compounds was conducted in CaSki cells. Using 6 well plates, 1.5×10^5 cells were seeded for each well and grown over night at 37° C. 5% CO2. For analysis of the cell cycle behavior, cells were analyzed in the presence of propidium Iodide (PI^−) by flow cytometry (FC). Briefly, cells were detached by trypsin digestion, all supernatants were included in the analysis, and fixed with 70% ice cold ethanol and stored at 4° C. until FC analysis using P1^− staining (1 mg/ml). At least 7000 events were acquired for each sample.
A general note: In flow cytometry, cells or beads pass a laser one at a time.

Data set [4] deals with human cervical carcinoma (CaSki) xenograft. Nature of the data set: Antitumor efficacy on CaSki human cervical carcinoma xenograft model. Format: in vivo, nude mice. The settings on record: for % TGI (Day 44), percentage tumor growth inhibition with respect to controls: OC246/OC974 2 mg/kg os. Here is the method: The aim of this study was to assess the in vivo efficacy of OC246 and OC974 on a human cervical carcinoma (CaSki) xenograft model in nude mice. OC246 and OC974 were administered oral once daily for four times with three days off, for three cycles at 2 mg/kg/dose. Cisplatin (CDDP) was used as a reference compound with three weekly intravenous (q7dx3) administrations of 6 mg/kg.
(In xenograft studies the graft and the host belong to different species.)

For data set [5], the system named is SARS-CoV-2. Nature of the data set: microbe, parasite or virus in culture. It counts as cell-based. The settings on record: for % Inhibition of SARV-CoV-2 virus activity: 1.25 μM, n4.

Sequence of HPV16 E7 protein (P03129 whole entry): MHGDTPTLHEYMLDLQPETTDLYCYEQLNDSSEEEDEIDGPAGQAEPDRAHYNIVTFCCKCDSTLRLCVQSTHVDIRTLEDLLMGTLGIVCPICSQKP

In the case of `CCNC(=O)N1CCN(C(=O)C2c3ccccc3C(=O)N(Cc3ccc(C)cc3)C2c2ccc(Cl)cc2)CC1` (stereo not drawn) [OC257], in data set [1], the “% Dad” value is 12%.

With `COc1ccc2c(c1)C(=O)N(CC1CCN(C)CC1)[C@@H](c1ccc(C(F)(F)F)cc1)[C@@H]2C(=O)Nc1cccc(N2CCN(C)CC2)c1` (relative stereo) [VS977, rel-(3R,4R)-7-methoxy-N-(3-(4-methylpiperazin-1-yl)phenyl)-2-((1-methylpiperidin-4-yl)methyl)-1-oxo-3-(4-(trifluoromethyl)phenyl)-1,2,3,4-tetrahydroisoquinoline-4-carboxamide], in data set [2] (CaSki, Test 21, FIG. 12), the “SRB anti-neoplastic effect compared among VS035, VS977, VS978, OC969” value is reported as “strongest effect”.

A word on the EC50: it is the concentration that produces a half-maximal response. The term inhibition denotes the change of the read-out against control, counted positive when it falls. For `CN1CCC(CN2C(=O)c3ccccc3[C@@H](C(=O)Nc3cccc(N4CCN(C)CC4)c3)[C@@H]2c2ccc(C(F)(F)F)cc2)CC1` (relative stereo) [OC974, rel-(3R,4R)-N-(3-(4-methylpiperazin-1-yl)phenyl)-2-((1-methylpiperidin-4-yl)methyl)-1-oxo-3-(4-(trifluoromethyl)phenyl)-1,2,3,4-tetrahydroisoquinoline-4-carboxamide], in data set [3] (5 μM, % cells in G1, no treatment 53.3), the “G1/5 μM” value amounted to 49.6%. For the same compound, the “G2/5 μM” value in data set [3] (5 μM, % cells in G2, no treatment 15.6) is listed as 9.9%. In data set [3] (5 μM, no treatment 15.0), the “A*/5 μM (Apoptosis as measured from total SUB G1 content)” value came out at 19.5%. In addition, in data set [3] (10 μM, % cells in G1, no treatment 53.3), the “G1/10 μM” value came out at 8.7%. Besides, in data set [3] (10 μM, % cells in G2, no treatment 15.6), the “G2/10 μM” value amounted to 0.8%. Besides, the “A*/10 μM (Apoptosis as measured from total SUB G1 content)” value in data set [3] (10 μM, no treatment 15.0) was 82.9% and 81.8%. Moreover, the “Tumor Volume Day 44 (mm^3 ± SD)” value in data set [4] (OC246/OC974 2 mg/kg os daily 4 x week 3 cycles, CDDP 6 mg/kg i.v. q7dx3, n = 7, control 1099 ± 503) is reported as 307 ± 171 mm^3. Further, in data set [4] (CDDP 6 mg/kg i.v. q7dx3), the “% TGI (Day 44), percentage tumor growth inhibition with respect to controls” value came out at 63.9%. For the same compound, the “Δ% Body Weight” value in data set [4] (between first day of treatment (day 20) and Day 44, control +4.9) is “+1.1%”. Besides, the “Δ% on Day 44” value in data set [4] (same schedules, control 100) is 23%. Also, the EC50 in data set [2] (Homo sapiens, Ca-Ski, read-out: EC50 mean [nM]) came out at 1550 nM. Also, in data set [5] (Severe acute respiratory syndrome coronavirus 2, n4, read-out: % Inhibition of SARV-CoV-2 virus activity), the inhibition at 1.25 µM turned out to be 54.3%.

Consider `CS(=O)(=O)O.Cc1c(O)cccc1C(=O)N[C@@H](CSc1ccccc1)[C@H](O)CN1C[C@H]2CCCC[C@H]2C[C@H]1C(=O)NC(C)(C)C` [Neifinavir-Mesylat], for which, in data set [5], the “% Inhibition of SARV-CoV-2 virus activity” value (“% Inhibition” for short) is on record as 9.49%.

For the compound `COc1ccc2cc1Oc1ccc(cc1)C[C@H]1c3c(cc4c(c3Oc3cc5c(cc3OC)CCN(C)[C@@H]5C2)OCO4)CCN1C` [Cepharantin], the “% Inhibition” value in data set [5] came to 2.32%.

As for `[NH2][Pt]([NH2])([Cl])[Cl]` [CDDP, Cisplatin, reference compound], the “% TGI (Day 44), percentage tumor growth inhibition with respect to controls” value in data set [4] (CDDP 6 mg/kg i.v. q7dx3) came out at 79.2%.

Take `C[C@@H]1C[C@@H]([C@H](O)CC2CC(=O)NC(=O)C2)C(=O)[C@@H](C)C1` [CHX, Cycloheximide, reference compound]: the “% Dab” value in data set [1] (CaSki cells, 10 μM, four hours, CHX set to 100%) is 100%. Moreover, the “Measured MFI (mean fluorescence intensity) of E7 signal” value in data set [1] (CaSki cells, 10 μM, four hours, vehicle T 8.06) is 1.71.

As for `Cc1ccc(CN2C(=O)c3ccccc3C(C(=O)NCc3ccc(C(C)C)cc3)C2c2ccc(Cl)cc2)cc1` (stereo not drawn) [OC254], the “% Dad” value in data set [1] came to 16%.

As for `c1c2c(cc3c1OCO3)-c1cc3ccc4c(c3c[n+]1CC2)OCO4` [Coptisin], the “% Inhibition” value in data set [5] is 98.97%.

As to `Nc1ccc(-c2ccc3ncc4ccc(=O)n(-c5cccc(C(F)(F)F)c5)c4c3c2)cn1` [Torin2], in data set [5], the “% Inhibition” value is given as 1.46%.

Regarding `Cc1ccc(CN2C(=O)c3ccccc3C(C(=O)NCc3ccc(Cl)cc3)C2c2ccc(Cl)cc2)cc1` (stereo not drawn) [OC253], the “% Dad” value in data set [1] is 0%.

Turning to `CCC(=O)N1CCN(c2ccc(-n3c(=O)ccc4cnc5ccc(-c6cnc7ccccc7c6)cc5c43)cc2C(F)(F)F)CC1` [Torin1], the “% Inhibition” value in data set [5] worked out at 7.00%.
